Test results: US4174406A, “Terpenylaminoalkanol fish toxicants” (priority 1977, dated 1979)
≈ marks a conversion by molar mass, not a printed value.

Legend:
[1] = system: Coho salmon; experiment: Laboratory fish toxicity test (Table 1); assay type: in vivo, Oncorhynchus kisutch; settings: tech, 12 C, soft water
Procedure: (§1) Fish were obtained from state and federal hatcheries and maintained prior to testing by a trained fish culturist. Fish of total length 2-5 cm were used in laboratory tests while for outdoor tests small fish (4-6 cm in length) and larger carp and buffalo (Ictiobus cyprinellus) were used.
(§2) In all tests 10 fish of each were exposed to selective concentrations of the toxicant. Mortalities were observed and recorded at 1,2 and 6 hours on the first day and once daily thereafter, during 96 hour exposure.
(§3) Laboratory tests were also conducted in soft water 12° C. wherein the toxicant was evaluated against fifteen species of fish including both cold and warm water varieties. In Table 1, the LC 50 toxicity values for N-(2-hydroxyethyl) digeranylamine is shown for various species. LC50 is defined as the amount (mg/liter) of toxicant required to kill 50 percent of the particular fish species at 95% confidence interval.

[2] = system: Rainbow trout; experiment: Laboratory fish toxicity test (Table 1); assay type: in vivo, Salmo gairdneri; settings: tech, 12 C, soft water
Procedure: as §1, §2, §3

[3] = system: Brown trout; experiment: Laboratory fish toxicity test (Table 1); assay type: in vivo, Salmo trutta; settings: tech, 12 C, soft water
Procedure: as §1, §2, §3

[4] = system: Lake trout; experiment: Laboratory fish toxicity test (Table 1); assay type: in vivo, Salvelinus namaycush; settings: tech, 12 C, soft water
Procedure: as §1, §2, §3

[5] = system: White sucker; experiment: Laboratory fish toxicity test (Table 1); assay type: in vivo, Catostomus commersoni; settings: tech, 12 C, soft water
Procedure: as §1, §2, §3

[6] = system: Bluegill; experiment: Laboratory fish toxicity test (Table 1); assay type: in vivo, Lepomis macrochirus; settings: tech, 12 C, soft water
Procedure: as §1, §2, §3

[7] = system: Smallmouth bass; experiment: Laboratory fish toxicity test (Table 1); assay type: in vivo, Micropterus dolomieui; settings: tech, 12 C, soft water
Procedure: as §1, §2, §3

[8] = system: Walleye; experiment: Laboratory fish toxicity test (Table 1); assay type: in vivo, Stizostedion vitreum; settings: tech, 12 C, soft water
Procedure: as §1, §2, §3

[9] = system: Backswimmer; experiment: Static bioassay in invertebrates (Table 2); assay type: in vivo, Notonecta sp.; settings: tech, 17 C, soft reconstituted water 42 mg/l hardness
Procedure: (§4) The effect of the various toxicants on common invertebrate species was determined in a static test conducted 17° C. The invertebrates tested were collected from natural populations or purchased from commercial suppliers. They were held in soft water in fiberglass tanks in the laboratory or in outdoor plastic swimming pools. Mortality was observed during holding, and only healthy organisms were used for the toxicity tests. At least 10 organisms of nine species were exposed to each concentration in static tests.

[10] = system: Fingernail clam; experiment: Static bioassay in invertebrates (Table 2); assay type: in vivo, Sphaerium sp.; settings: 96 hours, tech, 17 C, limed spring water 22-36 mg/l hardness
Procedure: as §4

[11] = system: Channel catfish; experiment: Outdoor plastic pool test (Table 3); assay type: in vivo, Ictalurus punctatus; settings: for % kill: 96 hour, 50% formulation (hydrochloride salt)
Procedure: N-(2-hydroxyethyl) digeranylamine was tested as a selective fish toxicant in outdoor pools stocked with various fish species and lined with black plastic using 50% water soluble formulations (hydrochloride salt). The formulation was added to each of four pools of 4,000-liter capacity at concentrations of 0.10, 0.15, 0.20, and 0.30 mg/liter. Another pool containing the same number, size, and species of fish served as a control. The test water had algal blooms, a pH of about 8.5, and a total hardness of about 200 mg/liter as CaCo3. The temperature was cool enough (15°-16°C.) to permit the use of trout.
as §1, §2
Outdoor pool tests were conducted using 50% formulation of the toxicant N-(2-hydroxyethyl) digeranylamine as indicated in Example 8. […] If selective control of white sucker and common carp is desired in an environment which includes rainbow trout, one should employ an effective concentration of toxicant which is at least as great as 0.05 mg/liter but less than 0.1 mg/liter. As a practical fishery practice in the northern United States and Canada, rainbow trout are not usually stocked in bodies of water containing the common carp species; the habitat conditions including water temperature and available oxygen of these species are usually quite different. Common carp and rainbow trout have quite different oxygen and temperature requirements and these differences generally preclude both species cohabitating under natural conditions. In this case the useful range to control common carp and white sucker can be much broader, i.e. 0.1 to 0.3 mg/liter.

[12] = system: Chinook, coho salmon, rainbow trout, goldfish, fathead, minnow, banded killfish, and walleye; experiment: Relative resistance of fish species in laboratory tests; assay type: in vivo; settings: soft water, 12 C
Procedure: as §3

[13] = 96 hours, listed as N-(2-hydroxyethyl) Digeranylamine, 5760 min

Structure (SMILES): CC(C)=CCC/C(C)=C/CN(C/C=C(\C)CCC=C(C)C)CCO [N-(2-hydroxyethyl) digeranylamine]
- LC50 ([1]; 3 hours): 0.320 µg/mL (≈ 0.959 µM)
- LC50 ([1]; 6 hours): 0.240 µg/mL (≈ 0.72 µM)
- LC50 ([1]; 24 hours): 0.200 µg/mL (≈ 0.6 µM)
- LC50 ([1]; 96 hours): 0.142 µg/mL (≈ 0.426 µM)
- LC50 ([2]; 3 hours): 0.220 µg/mL (≈ 0.66 µM)
- LC50 ([2]; 6 hours): 0.189 µg/mL (≈ 0.567 µM)
- LC50 ([2]; 24 hours): 0.187 µg/mL (≈ 0.561 µM)
- LC50 ([2]; 96 hours): 0.136 µg/mL (≈ 0.408 µM)
- LC50 ([3]; 3 hours): 0.0955 µg/mL (≈ 0.286 µM)
- LC50 ([3]; 6 hours): 0.0742 µg/mL (≈ 0.222 µM)
- LC50 ([3]; 24 hours): 0.0700 µg/mL (≈ 0.21 µM)
- LC50 ([3]; 96 hours): 0.0647 µg/mL (≈ 0.194 µM)
- LC50 ([4]; 3 hours): 0.109 µg/mL (≈ 0.327 µM)
- LC50 ([4]; 6 hours): 0.0700 µg/mL (≈ 0.21 µM)
- LC50 ([4]; 24 hours): 0.0470 µg/mL (≈ 0.141 µM)
- LC50 ([4]; 96 hours): 0.0570 µg/mL (≈ 0.171 µM)
- LC50 ([5]; 3 hours): 0.540 µg/mL (≈ 1.62 µM)
- LC50 ([5]; 6 hours): 0.136 µg/mL (≈ 0.408 µM)
- LC50 ([5]; 24 hours): 0.0690 µg/mL (≈ 0.207 µM)
- LC50 ([6]; 3 hours): 1.56 µg/mL (≈ 4.68 µM)
- LC50 ([6]; 6 hours): 1.13 µg/mL (≈ 3.39 µM)
- LC50 ([6]; 24 hours): 0.720 µg/mL (≈ 2.16 µM)
- LC50 ([6]; 96 hours, 5760 min): 0.72 µg/mL (≈ 2.16 µM)
- LC50 [6, 13]: 0.720 µg/mL (≈ 2.16 µM)
- LC50 ([7]; 3 hours): 1.36 µg/mL (≈ 4.08 µM)
- LC50 ([7]; 6 hours): 0.480 µg/mL (≈ 1.44 µM)
- LC50 ([7]; 24 hours): 0.420 µg/mL (≈ 1.26 µM)
- LC50 ([7]; 96 hours, 5760 min): 0.37 µg/mL (≈ 1.11 µM)
- LC50 [7, 13]: 0.237 µg/mL (≈ 0.711 µM)
- LC50 ([8]; 3 hours): 2.78 µg/mL (≈ 8.33 µM)
- LC50 ([8]; 6 hours): 1.03 µg/mL (≈ 3.09 µM)
- LC50 ([8]; 24 hours): 0.346 µg/mL (≈ 1.04 µM)
- LC50 ([8]; 96 hours): 0.239 µg/mL (≈ 0.717 µM)
- LC50 ([9]; 1 hour): 9.15 µg/mL (≈ 27.4 µM)
- LC50 ([9]; 3 hour): 8.35 µg/mL (≈ 25 µM)
- LC50 ([9]; 6 hours): 8.30 µg/mL (≈ 24.9 µM)
- LC50 ([9]; 28 hours): 4.90 µg/mL (≈ 14.7 µM)
- LC50 ([9]; 96 hours): 3.45 µg/mL (≈ 10.3 µM)
- LC50 [10]: 11.5 µg/mL (≈ 34.5 µM)
- % kill ([11]; 0.10 mg/l): 0%
- % kill ([11]; 0.15 mg/l): 0%
- % kill ([11]; 0.20 mg/l): 0%
- % kill ([11]; 0.30 mg/l): 40%
- survival (in words) ([11]; channel catfish, 0.30 mg/liter and lower, 50% formulation): died at 0.30 mg/liter of toxicant, but all survived lower concentrations
- resistance relative to carp or white suckers [12]: more resistant to the toxicant than carp (Caprinus carpio) or white suckers (Castostmus commersoni)
